Test results as given in patent US7470715B2, “Estrogen modulators” (Pfizer Inc., priority 2005, dated 2008).

Key:
[1] = target: T1, ligand binding domain of the estrogen receptor alpha chain (ERαLBD) (Homo sapiens, UniProt P03372); assay: ER agonist cell assay (ERα), Huh-7 co-transfection, luciferase; assay type: cell-based; settings: for EC50: Huh-7 cells co-transfected with pG5luc and ERαLBD, overnight incubation, luciferase; for ERα % of Max E2 Response: percent of the maximum estradiol fold change, Huh-7, pG5luc and ERαLBD
T1 construct: expressed in transfected cells; host or cells: Huh-7 human hepatoma cells, transient transfection with FuGENE 6
T1 sequence (P03372 311-547 limits assumed): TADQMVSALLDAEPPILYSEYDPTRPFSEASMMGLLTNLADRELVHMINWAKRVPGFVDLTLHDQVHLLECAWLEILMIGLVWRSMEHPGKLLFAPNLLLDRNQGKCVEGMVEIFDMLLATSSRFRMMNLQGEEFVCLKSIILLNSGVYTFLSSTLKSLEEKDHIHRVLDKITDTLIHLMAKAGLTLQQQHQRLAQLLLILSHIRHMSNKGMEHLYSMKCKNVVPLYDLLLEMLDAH
Method: (§1) The compounds ability to mimic the effects of estrogen on the estrogen receptor were determined in a whole cell assay as described immediately below.
(§2) Experimental Procedure for ER Agonist Cell Assay
(§3) • Cell line and plasmids: The human hepatoma cell line Huh-7 was used for co-transfections. Cells were maintained in culture medium and split when they reached 80-90% confluency. Three plasmids were routinely used in the assay. pG5luc contained the firefly luciferase gene and was obtained from Promega. […] Cell Culture Media and Reagents:
(§4) Culture medium: DMEM (phenol red free), 10% charcoal treated HyClone serum, 1% L-glutamine, and 1% penicillin/streptomycin
(§5) Transfection medium: DMEM (phenol red free) and 10% charcoal treated HyClone serum
(§6) Luciferase reagents: Dual-Glo Luciferase Kit (Promega cat #E2980) was used for determination of luciferase activity.
(§7) Transient transfections were preformed using the lipophilic reagent FuGENE 6 (Roche). Cells were split and seeded at 7.2×10^6/150 cm^2 flask in 20 mL of transfection medium. 5-6 hrs later cells were co-transfected with either pG5luc and ERαLBD or pG5luc and ERβLBD(pm418). Transfected cells grew overnight and were then used the next day.
(§8) Cells transfected 24 hrs earlier were harvested, counted, and seeded in wells containing compound at a density of 1×10^4 cells/well. […] Cells were incubated overnight at 37° C. and 5% CO2 in the presence of compound. The following day medium was aspirated from the wells and 100 ul of Dual-Glo™ Luciferase Reagent were added to each well. Plates were incubated at room temperature for 20 minutes and firefly luminescence was measured on a luminometer. Next, 50 ul of Dual-Gbo™ Stop & Glo® Reagent were added to each well and after 20 minutes at room temperature the Renilla luminescence was measured on a luminometer. Values from each well were normalized by dividing the firefly luminescence by the Renilla luminescence. Estradiol was used as the standard and run in each assay. The fold induction over background for each compound was compared to the maximum fold induction for estradiol in each assay. […] Those compounds that were not tested, or the data was unavailable are marked as NT.

[2] = target: ligand binding domain of the estrogen receptor beta chain (ERβLBD) that contained a point mutation at amino acid residue 418 (pm418) (Homo sapiens, UniProt Q92731); assay: ER agonist cell assay (ERβ), Huh-7 co-transfection, luciferase; assay type: cell-based; settings: for EC50: Huh-7 cells co-transfected with pG5luc and ERβLBD(pm418), overnight incubation, luciferase; for ERβ % of Max E2 Response: percent of the maximum estradiol fold change, Huh-7, pG5luc and ERβLBD(pm418)
Method: as §1, §2, §3, §4, §5, §6, §7, §8

[3] = system: hairless female SKH, 1-hr mice; assay: Animal model for reversal of wrinkles: skin thickness model, topical dosing, skin thickness and hyaluronic acid; assay type: in vivo, mouse; settings: 3% topical, QD, three days
Source text: Animal Model for Reversal of Wrinkles
Uzuka et al. describes an increase in mouse back skin water content, hyaluronic acid (HA) content, and hyaluronic acid synthetase activity following topical application or subcutaneous injection of estradiol (Biochimica et Biophysica Acta, 627, 199-206, 1980; Biochimica et Biophysica Acta 673, 387-393, 1981). […] Thus, this model may be used to as a preliminary screen to assess the potential for estrogen modulators to alleviate wrinkles in human skin.
The skin thickness model uses hairless female SKH, 1-hr mice. Mice aged to approximately 11 weeks are introduced into the laboratory environment and acclimated for at least 1 week prior to use in the study may be used. Each group typically consisted of 7 animals that may be run in parallel with vehicle and the positive control estradiol. Based on binding and/or cellular assay data, compounds are chosen for screening in this model. Those compounds include the products of Examples, 2, 9, 15, 46, 47, 48, 51, 52, 61, 135, and 137. Prior to topical application to mouse dorsal skin, a sufficient quantity of each compound is dissolved in a solvent generally consisting of ethanol and propylene glycol (70/30% v/v) (vehicle) to achieve the final concentration specified in Table C below. Animals are dosed topically QD or BID, for three days. Each dose consisted of 100 microliters of vehicle or drug applied uniformly to the entire dorsal surface (˜18 cm^2). All animals are sacrificed approximately 18-24 hours after the final dose. Skin thickness (ST) is measured using a caliper. HA is extracted from the skin and quantitated using commercially-available enzyme-linked immunosorbent assays (ELISAs)(HA).
Data are presented as percent of the estradiol response after subtracting out the ST for vehicle-treated mouse skin. The estradiol response is set to 100% and the vehicle resoibse becines 0%.

Compound	EC50 [1] [nM]	ERα % of Max E2 Response [1] [%]	EC50 [2] [nM]	ERβ % of Max E2 Response [2] [%]	HA (hyaluronic acid), percent of the estradiol response [3] [%]	ST (skin thickness), percent of the estradiol response [3] [%]
CCCOCC1(c2onc(-c3ccc(O)cc3)c2-c2ccccc2)CC1 [Example 9, 4-[4-Phenyl-5-(1-propoxymethyl-cyclopropyl)-isoxazol-3-yl]-phenol]	177	40.2	41.3	2.63	58	49
1-[3-(4-Hydroxy-phenyl)-4-phenyl-isoxazol-5-yl]-cyclopropanecarboxylic acid isopropyl ester [Example 61]	75	21.1	> 10000	>1.83	38	32
OCC1(c2onc(-c3ccc(O)c(F)c3)c2-c2ccccc2)CC1 [Example 98, 2-Fluoro-4-[5-(1-hydroxymethyl-cyclopropyl)-4-phenyl-isoxazol-3-yl]-phenol]	985	46	799	36.8	–	–
O=C(OC1CCCC1)C1(c2onc(-c3ccc(O)cc3)c2-c2ccccc2)CC1 [Example 89, 1-[3-(4-Hydroxy-phenyl)-4-phenyl-isoxazol-5-yl]-cyclopropanecarboxylic acid cyclopentyl ester]	30.5	26	> 10000	>2.93	–	–
CC(C)OCC1(c2onc(-c3ccc(O)cc3)c2-c2ccccc2)CC1 [Example 3, 4-[5-(1-Isopropoxymethyl-cyclopropyl)-4-phenyl-isoxazol-3-yl]-phenol]	97.1	32.2	568	1.32	–	–
COc1ncccc1OCC1(c2onc(-c3ccc(O)cc3)c2-c2ccccc2)CC1 [Example 13, 4-{5-[1-(2-Methoxy-pyridin-3-yloxymethyl)-cyclopropyl]-4-phenyl-isoxazol-3-yl}-phenol]	–	19	–	0.552	–	–
Oc1ccc(-c2noc(C3(C(O)C4CC4)CC3)c2-c2ccccc2)cc1 (racemic) [Example 14, (±)-4-{5-[1-(Cyclopropyl-hydroxy-methyl)-cyclopropyl]-4-phenyl-isoxazol-3-yl}-phenol]	43	45.4	136	17.7	–	–
COCC1(c2onc(-c3ccc(O)cc3)c2-c2ccccc2)CC1 [Example 8, 4-[5-(1-Methoxymethyl-cyclopropyl)-4-phenyl-isoxazol-3-yl]-phenol]	25.8	40.4	68.8	3.65	–	–
Cc1ncccc1OCC1(c2onc(-c3ccc(O)cc3)c2-c2ccccc2)CC1 [Example 12, 4-{5-[1-(2-Methyl-pyridin-3-yloxymethyl)-cyclopropyl]-4-phenyl-isoxazol-3-yl}-phenol]	354	26.2	–	0.577	–	–
CC(C)(C)COC(=O)C1(c2onc(-c3ccc(O)cc3)c2-c2ccccc2)CC1 [Example 93, 1-[3-(4-Hydroxy-phenyl)-4-phenyl-isoxazol-5-yl]-cyclopropanecarboxylic acid 2,2-dimethyl-propyl ester]	33.8	20.4	> 10000	>0.813	–	–
Oc1ccc(-c2noc(C3(c4nnc(-c5ccccc5O)o4)CC3)c2-c2ccccc2)cc1 [Example 122, 2-(5-{1-[3-(4-hydroxyphenyl)-4-phenylisoxazol-5-yl]cyclopropyl}-1,3,4-oxadiazol-2-yl)phenol]	71.5	21.9	> 10000	>0.756	–	–
COc1cccc(F)c1OCC1(c2onc(-c3ccc(O)cc3)c2-c2ccccc2)CC1 [Example 7, 4-{5-[1-(2-Fluoro-6-methoxy-phenoxymethyl)-cyclopropyl]-4-phenyl-isoxazol-3-yl}-phenol]	208	17.2	> 10000	>0.485	–	–
Oc1ccc(-c2noc(C3(c4nnc(-c5cccc(O)c5)o4)CC3)c2-c2ccccc2)cc1 [Example 125, 3-(5-{1-[3-(4-hydroxyphenyl)-4-phenylisoxazol-5-yl]cyclopropyl}-1,3,4-oxadiazol-2-yl)phenol]	419	22.1	> 10000	>0.535	–	–
CC(=O)C1(c2onc(-c3ccc(O)cc3)c2-c2ccccc2)CC1 [Example 101, 1-{1-[3-(4-Hydroxy-phenyl)-4-phenyl-isoxazol-5-yl]-cyclopropyl}-ethanone]	122	58.3	–	13.6	–	–
Oc1ccc(-c2noc(C3(c4nnc(-c5ccc(O)cc5O)o4)CC3)c2-c2ccccc2)cc1 [Example 118, 4-(5-{1-[3-(4-hydroxyphenyl)-4-phenylisoxazol-5-yl]cyclopropyl}-1,3,4-oxadiazol-2-yl)benzene-1,3-diol]	25.1	15	> 10000	>0.789	–	–
CCC(=O)OCC1(c2onc(-c3ccc(O)cc3)c2-c2ccccc2)CC1 [Example 57]	245	71.9	137	112	–	–
COc1cccc(-c2nnc(C3(c4onc(-c5ccc(O)cc5)c4-c4ccccc4)CC3)o2)c1 [Example 123, 4-(5-{1-[5-(3-methoxyphenyl)-1,3,4-oxadiazol-2-yl]cyclopropyl}-4-phenylisoxazol-3-yl)phenol]	46.9	35.9	> 10000	>0.658	–	–
Oc1ccc(-c2noc(C3(CSc4ccccc4)CC3)c2-c2ccccc2)cc1 [Example 40, 4-[4-Phenyl-5-(1-phenylsulfanylmethyl-cyclopropyl)-isoxazol-3-yl]-phenol]	107	39.5	139	1.12	–	–
Oc1ccc(-c2nnc(C3(c4onc(-c5ccc(O)cc5)c4-c4ccccc4)CC3)o2)cc1 [Example 124, 4-(5-{1-[5-(4-hydroxyphenyl)-1,3,4-oxadiazol-2-yl]cyclopropyl}-4-phenylisoxazol-3-yl)phenol]	152	24.4	> 10000	>0.539	–	–
COc1ccc(-c2nnc(C3(c4onc(-c5ccc(O)cc5)c4-c4ccccc4)CC3)o2)cc1 [Example 129, 4-(5-{1-[5-(4-methoxyphenyl)-1,3,4-oxadiazol-2-yl]cyclopropyl}-4-phenylisoxazol-3-yl)phenol]	≥ 10000	19.1	> 10000	0.625	–	–
